Experiments:
[1] = tested on: PfROM4; experiment: Merozoite adhesin shedding assay: EBA175 shedding by PfROM4; format: cell-based, P. falciparum; details: 10μM RiKa (p=0.0014) or 25mM EGTA, 90 min at 37°C
[2] = tested on: PfROM4; format: cell-based, P. falciparum; details: transfected HEK293T cells

Compound	shedding of EBA175 by PfROM4 from free merozoites [1]	inhibition of EBA175 processing by PfROM4 [2]
O=C(O)CN(CCOCCOCCN(CC(=O)O)CC(=O)O)CC(=O)O [EGTA]	did not inhibit	–
Ac-KRFRSMQYSA-CHO (Ac-KRFRSMQYSA-aldehyde; SMILES CSCC[C@H](NC(=O)[C@H](CO)NC(=O)[C@H](CCCNC(=N)N)NC(=O)[C@H](Cc1ccccc1)NC(=O)[C@H](CCCNC(=N)N)NC(=O)[C@H](CCCCN)NC(C)=O)C(=O)N[C@@H](CCC(N)=O)C(=O)N[C@@H](Cc1ccc(O)cc1)C(=O)N[C@@H](CO)C(=O)N[C@@H](C)C=O)	–	abrogated PfROM4 inhibition

— article PMC7680425 (Cell chemical biology, 2020)
